Measured values reported in ChEMBL document CHEMBL1154074, “3D-QSAR with the aid of pharmacophore search and docking-based alignments for farnesyltransferase inhibitors” (Eur J Med Chem, 2009).

Assay: Inhibition of FTase

| pIC50 | Compound |
| --- | --- |
| 9.02 | N#Cc1ccc(COCc2cncn2Cc2ccc(C#N)cc2-c2cccc3ccccc23)cc1 |
| 9.31 | N#Cc1ccc(Cn2cncc2COCc2ccc(C#N)cc2-c2cccc(OC(F)(F)F)c2)cc1 |
| 9.22 | Cc1ccc(-c2cc(C#N)ccc2COCc2cncn2Cc2ccc(C#N)cc2)cc1C |
| 8.37 | N#Cc1ccc(Cn2cncc2COCc2ccc(C#N)cc2-c2ccc(C(F)(F)F)cc2)cc1 |
| 8.4 | N#Cc1ccc(Cn2cncc2COc2ccc(Cl)cc2-c2cccc(Cl)c2)cc1 |
| 8.08 | N#Cc1ccc(COCc2cncn2Cc2ccc(Cl)cc2)c(-c2ccc3c(c2)OCO3)c1 |
| 9.24 | CCOc1cccc(-c2cc(C#N)ccc2COCc2cncn2Cc2ccc(C#N)nc2)c1 |
| 8.19 | N#Cc1ccc(Cn2cncc2CNCc2ccc(C#N)c(-c3cccc4ccccc34)c2)cc1 |
| 9.36 | CC(C)(C)c1ccc(-c2cc(C#N)ccc2COCc2cncn2Cc2ccc(C#N)cc2)cc1 |
| 8.52 | N#Cc1ccc(COCc2cncn2Cc2ccc(C#N)nc2)c(-c2ccc3c(c2)OCO3)c1 |
| 9.04 | N#Cc1ccc(Cn2cncc2COCc2ccc(C#N)cc2-c2ccc3ccccc3c2)cc1 |
| 8.9 | CCOc1ccc(-c2cc(C#N)ccc2COCc2cncn2Cc2ccc(C#N)cc2)cc1 |
| 9.05 | N#Cc1ccc(OCc2cncn2Cc2ccc(C#N)c(-c3cccc4ccccc34)c2)nc1 |
| 8.12 | COc1ccc(-c2cc(C#N)ccc2COCc2cncn2Cc2ccc(C#N)cc2)cn1 |
| 8.52 | N#Cc1ccc(COCc2cncn2Cc2ccc(C#N)nc2)c(-c2cccc(Cl)c2)c1 |
| 8.36 | COc1cccc(-c2cc(C#N)ccc2COCc2cncn2Cc2ccc(C#N)cn2)c1 |
| 9.49 | N#Cc1ccc(OCc2cncn2Cc2ccc(C#N)c(-c3cccc4ccccc34)c2)cc1 |
| 8.32 | N#Cc1ccc(Cn2cncc2COCc2ccc(C#N)c(-c3cccc4ccccc34)c2)cc1 |
| 8.82 | COc1cccc(-c2cc(C#N)ccc2COCc2cncn2Cc2ccc(C#N)nc2)c1 |
| 9.43 | N#Cc1ccc(Cn2cncc2COCc2ccc(C#N)cc2-c2cccc(Cl)c2)cc1 |
| 9.21 | N#Cc1ccc(Cn2cncc2COCc2ccc(Cl)cc2-c2cccc(Cl)c2)cc1 |
| 8.33 | N#Cc1ccc(Cn2cncc2COCc2ccc(C#N)cc2-c2ccc3c(c2)OCO3)nc1 |

| pIC50 | Compound |
| --- | --- |
| 9.42 | N#Cc1ccc(Cn2cncc2COc2ccc(C#N)c(-c3cccc4ccccc34)c2)cc1 |
| 7.02 | CS(=O)(=O)c1ccc(Cn2cncc2COCc2ccc(C#N)cc2-c2cccc(Cl)c2)cc1 |
| 8 | N#Cc1ccc(COCc2cncn2Cc2ccc(C#N)cc2-c2cccc(Cl)c2)c(-c2cccc(Cl)c2)c1 |
| 9.43 | N#Cc1ccc(Cn2cncc2COCc2ccc(C#N)cc2-c2ccc(Cl)c(Cl)c2)cc1 |
| 8.37 | N#Cc1ccc(Cn2cncc2COCc2cnc(C#N)cc2-c2cccc(Cl)c2)cc1 |
| 8.21 | N#Cc1cn(Cc2cncn2Cc2ccc3c(c2)OCO3)cc1-c1cccc2ccccc12 |
| 8.42 | Cn1c(=O)cc(-c2cccc(Cl)c2)c2cc(C(N)c3cncn3Cc3ccc(C#N)cc3)ccc21 (centres undefined) |
| 7.54 | Cn1c(=O)cc(-c2cccc(Cl)c2)c2cc(C(=O)c3cncn3Cc3ccc(C#N)cc3)ccc21 |
| 7.05 | Cn1c(=O)cc(-c2cccc(Cl)c2)c2cc(COCc3cncn3Cc3ccc(C#N)cc3)ccc21 |
| 8.77 | N#Cc1ccc(Cn2cncc2COCc2ccc(C#N)cc2-c2cccc(Cl)c2)nc1 |
| 8.89 | N#Cc1ccc(Cn2cncc2COCc2ccc(C#N)cc2-c2cccc3ccccc23)cc1 |
| 8.85 | CCOc1cccc(-c2cc(C#N)ccc2COCc2cncn2Cc2ccc(Cl)cc2)c1 |
| 9.19 | N#Cc1ccc(Cn2cncc2COCc2ccc(C#N)cc2-c2ccc(OC(F)(F)F)cc2)cc1 |
| 9.09 | N#Cc1ccc(Cn2cncc2COCc2ccc(C#N)cc2-c2cccc3c2OCO3)cc1 |
| 8.17 | N#Cc1ccc(COCc2cncn2Cc2ccc(C#N)cc2-c2cccc3ccccc23)c(-c2ccc3c(c2)OCO3)c1 |
| 8.89 | CC(=O)c1ccc(-c2cc(C#N)ccc2COCc2cncn2Cc2ccc(C#N)cc2)cc1 |
| 8.68 | Cn1c(=O)cc(-c2cccc(Cl)c2)c2cc(C(NC=O)c3cncn3Cc3ccc(C#N)cc3)ccc21 (centres undefined) |
| 8.66 | COc1cccc(-c2cc(C#N)ccc2COCc2cncn2Cc2ccc(Cl)cc2)c1 |
| 7.33 | Cn1c(=O)cc(-c2cccc(Cl)c2)c2cc(C(O)c3cncn3Cc3ccc(C#N)cc3)ccc21 (centres undefined) |
| 9.24 | N#Cc1ccc(Cn2cncc2Cn2cc(C#N)c(-c3cccc4ccccc34)c2)cc1 |
| 7.89 | CC(=O)Nc1cccc(-c2cc(C#N)ccc2COCc2cncn2Cc2ccc(C#N)cc2)c1 |
| 9.82 | N#Cc1ccc(Cn2cncc2Cn2ccc3c(C#N)c(-c4cccc5ccccc45)ccc32)cc1 |
